Data taken from ChEMBL document CHEMBL5108009, “Positron Emission Tomography (PET) Imaging Tracers for Serotonin Receptors” (J Med Chem, 2022).

What was measured:
[1] = Binding affinity to rhesus monkey 5-HT1B receptor assessed as inhibition constant; parameters: species or system Macaca mulatta
[2] = Binding affinity to rhesus monkey 5-HT1D receptor assessed as inhibition constant; parameters: species or system Macaca mulatta
[3] = target: T1, 5-hydroxytryptamine receptor 1A (Homo sapiens, UniProt P08908)
T1 sequence (P08908 whole entry): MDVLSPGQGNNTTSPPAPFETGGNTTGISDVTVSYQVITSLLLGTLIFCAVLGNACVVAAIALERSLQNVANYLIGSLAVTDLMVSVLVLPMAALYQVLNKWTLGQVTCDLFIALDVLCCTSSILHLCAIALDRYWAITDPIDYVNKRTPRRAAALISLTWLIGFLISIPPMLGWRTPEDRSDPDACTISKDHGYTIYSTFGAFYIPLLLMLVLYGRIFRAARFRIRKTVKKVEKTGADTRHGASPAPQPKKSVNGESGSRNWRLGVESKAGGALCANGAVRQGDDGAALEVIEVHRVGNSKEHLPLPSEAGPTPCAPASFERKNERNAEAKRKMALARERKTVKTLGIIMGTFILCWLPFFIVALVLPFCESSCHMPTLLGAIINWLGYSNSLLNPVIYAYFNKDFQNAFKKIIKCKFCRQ

[4] = Drug uptake ratio in cat brain dorsal raphe nucleus to cerebellum measured after 20 to 30 mins by camera ClearPET LYSO/LuYAP Phoswich-scanner analysis; assay type: ADME, tissue-based, Felis catus; conditions: time 20-30 min
[5] = Drug uptake ratio in Sprague-Dawley rat brain cingulate cortex to cerebellum measured after 20 to 30 mins by camera ClearPET LYSO/LuYAP Phoswich-scanner analysis; assay type: ADME, tissue-based; conditions: time 20-30 min
[6] = Ratio of drug uptake in monkey hippocampus to cerebellum; assay type: ADME, tissue-based, Macaca mulatta; conditions: rhesus monkey, in vivo
[7] = Ratio of drug uptake in monkey anterior cingulate cortex to cerebellum; assay type: ADME, tissue-based, Macaca mulatta; conditions: rhesus monkey, in vivo
[8] = target: T2, Alpha-1A adrenergic receptor (Rattus norvegicus, UniProt P43140); assay: Displacement of [3H]-WB4101 from rat forebrain alpha 1 adrenergic receptors; assay type: tissue-based
T2 sequence (P43140 whole entry): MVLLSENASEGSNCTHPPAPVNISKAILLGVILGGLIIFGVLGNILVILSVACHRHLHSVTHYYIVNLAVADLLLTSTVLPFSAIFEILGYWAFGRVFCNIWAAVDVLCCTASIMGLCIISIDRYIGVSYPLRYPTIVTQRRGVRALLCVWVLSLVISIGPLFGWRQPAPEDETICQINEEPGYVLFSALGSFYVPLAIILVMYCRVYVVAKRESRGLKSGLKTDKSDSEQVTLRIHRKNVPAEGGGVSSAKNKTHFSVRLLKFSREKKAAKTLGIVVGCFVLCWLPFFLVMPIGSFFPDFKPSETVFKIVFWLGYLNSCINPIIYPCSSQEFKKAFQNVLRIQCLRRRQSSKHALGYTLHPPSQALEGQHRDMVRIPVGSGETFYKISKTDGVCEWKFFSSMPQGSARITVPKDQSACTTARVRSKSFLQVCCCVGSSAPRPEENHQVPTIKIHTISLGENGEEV

[9] = target: T3, D(2) dopamine receptor (Rattus norvegicus, UniProt P61169); assay: Displacement of [3H]-halopridol from rat striatum D2 receptors
[10] = target: Serotonin 2 (5-HT2) receptor (Homo sapiens, UniProt P41595+P28223+P28335); assay: Binding affinity to cerebrum 5-HT2 receptor (unknown origin); assay type: tissue-based
[11] = Ratio of drug uptake in human frontal cortex to cerebellum at 15 mCi measured after 30 mins postinjection by PET imaging; assay type: ADME, organism-based, Brain frontal cortex/cerebellum; conditions: in vivo, 0.5 h
[12] = Ratio of drug uptake in human frontal cortex to cerebellum at 15 mCi measured after 60 mins postinjection by PET imaging; assay type: ADME, organism-based, Brain frontal cortex/cerebellum; conditions: in vivo, 1 h
[13] = Binding affinity to rat cerebral cortex homogenate 5-HT1A receptor assessed as inhibition constant; assay type: tissue-based
[14] = target: Histamine H1 receptor (Cavia porcellus, UniProt P31389); assay: Binding affinity to guinea pig cerebellum homogenate membrane H1 receptor incubated for 30 mins; assay type: cell membranes
[15] = target: T3, D(2) dopamine receptor; assay: Binding affinity to rat striatum homogenate membrane D2 receptor incubated for 10 mins; assay type: cell membranes
[16] = target: T2, Alpha-1A adrenergic receptor; assay: Binding affinity to rat forebrain homogenate membrane alpha 1 adrenergic receptor incubated for 10 mins; assay type: cell membranes
[17] = target: T3, D(2) dopamine receptor; assay: Binding affinity to rat brain homogenate D2 receptor assessed as dissociation constant; assay type: tissue-based
[18] = target: T4, 5-hydroxytryptamine receptor 1A (Rattus norvegicus, UniProt P19327); assay: Binding affinity to rat brain homogenate 5-HT1A receptor assessed as dissociation constant; assay type: tissue-based
T4 sequence (P19327 whole entry): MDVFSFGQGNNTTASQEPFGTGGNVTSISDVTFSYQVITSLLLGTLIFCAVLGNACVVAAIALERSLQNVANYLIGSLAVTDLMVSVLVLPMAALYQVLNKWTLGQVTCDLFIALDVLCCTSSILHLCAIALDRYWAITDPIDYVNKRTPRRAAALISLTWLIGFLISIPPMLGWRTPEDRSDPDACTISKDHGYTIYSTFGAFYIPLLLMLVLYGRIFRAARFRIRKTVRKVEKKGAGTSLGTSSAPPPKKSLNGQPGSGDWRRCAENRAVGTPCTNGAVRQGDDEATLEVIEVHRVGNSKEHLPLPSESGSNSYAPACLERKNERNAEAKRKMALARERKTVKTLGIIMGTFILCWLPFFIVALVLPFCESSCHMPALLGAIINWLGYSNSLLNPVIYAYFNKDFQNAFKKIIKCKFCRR

[19] = target: Sodium-dependent serotonin transporter (Rattus norvegicus, UniProt P31652); assay: Binding affinity to rat brain homogenate SERT receptor assessed as dissociation constant; assay type: tissue-based
[20] = target: T5, Alpha-1A adrenergic receptor (Homo sapiens, UniProt P35348); assay: Binding affinity to human alpha 1A adrenergic receptor expressed in CHO cells assessed as inhibition constant; assay type: cell-based
T5 sequence (P35348 whole entry): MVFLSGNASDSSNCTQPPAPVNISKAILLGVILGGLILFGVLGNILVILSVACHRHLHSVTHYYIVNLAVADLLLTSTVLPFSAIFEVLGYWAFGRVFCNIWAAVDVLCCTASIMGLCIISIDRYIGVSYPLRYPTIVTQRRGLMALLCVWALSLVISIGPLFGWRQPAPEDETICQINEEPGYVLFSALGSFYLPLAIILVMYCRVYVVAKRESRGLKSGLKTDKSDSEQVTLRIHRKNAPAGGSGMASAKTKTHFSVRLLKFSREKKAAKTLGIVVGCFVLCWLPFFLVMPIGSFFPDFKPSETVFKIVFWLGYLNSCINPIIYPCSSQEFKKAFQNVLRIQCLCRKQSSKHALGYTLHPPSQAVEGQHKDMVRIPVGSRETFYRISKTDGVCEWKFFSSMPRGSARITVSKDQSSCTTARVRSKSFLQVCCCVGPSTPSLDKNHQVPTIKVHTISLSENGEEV

[21] = target: 5-hydroxytryptamine receptor 2B (Homo sapiens, UniProt P41595); assay: Binding affinity to human 5-HT2B receptor expressed in CHO cells assessed as inhibition constant; assay type: cell-based
[22] = target: T1, 5-hydroxytryptamine receptor 1A; assay: Binding affinity to human 5-HT1A receptor expressed in CHO cells assessed as inhibition constant; assay type: cell-based
[23] = target: D(4) dopamine receptor (Homo sapiens, UniProt P21917); assay: Binding affinity to human D4 receptor expressed in CHO cells assessed as inhibition constant; assay type: cell-based
[24] = target: 5-hydroxytryptamine receptor 1D (Homo sapiens, UniProt P28221); assay: Binding affinity to human 5-HT1D receptor expressed in CHO cells assessed as inhibition constant; assay type: cell-based
[25] = Drug uptake in rat brain; assay type: ADME, tissue-based; conditions: in vivo
[26] = Drug uptake in monkey brain measured after 7 mins postinjection; assay type: ADME, organism-based, Macaca mulatta; conditions: rhesus monkey, in vivo
[27] = Drug metabolism in monkey plasma assessed as unchanged compound at 120 mins postinjection relative to control; assay type: ADME, organism-based, Macaca mulatta; conditions: rhesus monkey, read-out: Stability
[28] = Drug uptake ratio in cynomolgus monkey globus pallidus to cerebellum at 30 to 40 mins postinjection; assay type: ADME, organism-based, Macaca fascicularis; conditions: in vivo, time 30-40 min
[29] = Drug uptake ratio in cynomolgus monkey occipital cortex to cerebellum at 30 to 40 mins postinjection; assay type: ADME, organism-based, Macaca fascicularis; conditions: in vivo, time 30-40 min

T3 sequence (P61169 whole entry): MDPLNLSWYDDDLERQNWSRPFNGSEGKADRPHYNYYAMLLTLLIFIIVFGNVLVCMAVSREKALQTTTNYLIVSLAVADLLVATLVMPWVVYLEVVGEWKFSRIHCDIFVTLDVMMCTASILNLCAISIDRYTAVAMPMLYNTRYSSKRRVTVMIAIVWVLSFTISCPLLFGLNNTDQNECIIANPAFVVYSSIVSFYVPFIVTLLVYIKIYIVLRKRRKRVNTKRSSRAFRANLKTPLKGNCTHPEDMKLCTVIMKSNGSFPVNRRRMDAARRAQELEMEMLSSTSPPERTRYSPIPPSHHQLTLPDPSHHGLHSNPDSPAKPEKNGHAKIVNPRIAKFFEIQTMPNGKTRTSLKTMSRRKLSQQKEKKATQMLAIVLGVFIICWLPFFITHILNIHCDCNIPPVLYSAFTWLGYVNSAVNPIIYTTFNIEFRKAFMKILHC
Chain of 5-hydroxytryptamine receptor 2B (P41595 whole entry): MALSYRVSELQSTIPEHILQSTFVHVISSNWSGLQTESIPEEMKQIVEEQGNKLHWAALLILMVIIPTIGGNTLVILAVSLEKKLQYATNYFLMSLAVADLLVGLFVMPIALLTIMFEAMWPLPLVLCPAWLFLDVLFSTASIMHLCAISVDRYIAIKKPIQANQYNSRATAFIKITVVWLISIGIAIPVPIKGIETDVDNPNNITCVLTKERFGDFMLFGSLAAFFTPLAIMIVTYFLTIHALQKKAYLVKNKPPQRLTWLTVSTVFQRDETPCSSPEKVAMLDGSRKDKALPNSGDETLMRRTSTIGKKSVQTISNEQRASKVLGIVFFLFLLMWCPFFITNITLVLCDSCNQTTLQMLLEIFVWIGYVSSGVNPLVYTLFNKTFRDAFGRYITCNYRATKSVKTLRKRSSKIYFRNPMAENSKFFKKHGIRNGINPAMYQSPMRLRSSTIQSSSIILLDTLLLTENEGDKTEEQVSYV
Chain of D(4) dopamine receptor (P21917 whole entry): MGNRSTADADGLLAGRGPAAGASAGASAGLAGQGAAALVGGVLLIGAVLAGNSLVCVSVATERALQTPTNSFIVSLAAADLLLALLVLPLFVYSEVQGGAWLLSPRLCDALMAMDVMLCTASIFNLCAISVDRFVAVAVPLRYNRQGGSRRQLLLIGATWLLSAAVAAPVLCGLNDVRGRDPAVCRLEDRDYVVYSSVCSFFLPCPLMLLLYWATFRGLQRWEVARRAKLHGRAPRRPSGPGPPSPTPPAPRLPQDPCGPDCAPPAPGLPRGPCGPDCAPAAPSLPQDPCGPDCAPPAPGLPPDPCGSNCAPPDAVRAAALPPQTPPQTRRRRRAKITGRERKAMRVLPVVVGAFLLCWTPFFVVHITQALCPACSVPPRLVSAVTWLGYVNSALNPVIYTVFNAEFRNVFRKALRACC
Chain of Sodium-dependent serotonin transporter (P31652 whole entry): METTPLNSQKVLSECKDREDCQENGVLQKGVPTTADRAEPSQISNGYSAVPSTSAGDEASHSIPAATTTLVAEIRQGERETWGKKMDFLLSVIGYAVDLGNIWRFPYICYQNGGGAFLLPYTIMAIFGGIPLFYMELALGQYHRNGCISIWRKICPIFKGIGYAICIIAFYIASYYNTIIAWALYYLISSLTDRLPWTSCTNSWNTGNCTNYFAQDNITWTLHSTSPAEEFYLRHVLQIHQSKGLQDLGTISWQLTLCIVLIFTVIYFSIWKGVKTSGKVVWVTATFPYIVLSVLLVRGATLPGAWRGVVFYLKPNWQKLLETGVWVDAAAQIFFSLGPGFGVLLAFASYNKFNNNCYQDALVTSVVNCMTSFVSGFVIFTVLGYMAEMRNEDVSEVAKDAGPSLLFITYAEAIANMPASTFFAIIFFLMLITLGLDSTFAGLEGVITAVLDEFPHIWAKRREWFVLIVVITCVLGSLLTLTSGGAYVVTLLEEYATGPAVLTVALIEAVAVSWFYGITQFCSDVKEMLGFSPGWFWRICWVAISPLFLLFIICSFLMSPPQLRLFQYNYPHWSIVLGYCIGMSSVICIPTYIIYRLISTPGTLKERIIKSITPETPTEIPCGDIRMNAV
Chain of 5-hydroxytryptamine receptor 1D (P28221 whole entry): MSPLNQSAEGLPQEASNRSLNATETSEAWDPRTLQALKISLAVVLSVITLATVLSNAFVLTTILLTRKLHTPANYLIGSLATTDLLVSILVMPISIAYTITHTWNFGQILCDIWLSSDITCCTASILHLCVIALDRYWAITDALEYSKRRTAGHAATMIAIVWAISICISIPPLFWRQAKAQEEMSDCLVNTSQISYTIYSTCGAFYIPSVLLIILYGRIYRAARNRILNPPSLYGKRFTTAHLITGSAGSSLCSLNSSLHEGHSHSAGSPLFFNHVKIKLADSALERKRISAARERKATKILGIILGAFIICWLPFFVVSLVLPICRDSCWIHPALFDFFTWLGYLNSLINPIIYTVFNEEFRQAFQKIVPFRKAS
Chain of Histamine H1 receptor (P31389 whole entry): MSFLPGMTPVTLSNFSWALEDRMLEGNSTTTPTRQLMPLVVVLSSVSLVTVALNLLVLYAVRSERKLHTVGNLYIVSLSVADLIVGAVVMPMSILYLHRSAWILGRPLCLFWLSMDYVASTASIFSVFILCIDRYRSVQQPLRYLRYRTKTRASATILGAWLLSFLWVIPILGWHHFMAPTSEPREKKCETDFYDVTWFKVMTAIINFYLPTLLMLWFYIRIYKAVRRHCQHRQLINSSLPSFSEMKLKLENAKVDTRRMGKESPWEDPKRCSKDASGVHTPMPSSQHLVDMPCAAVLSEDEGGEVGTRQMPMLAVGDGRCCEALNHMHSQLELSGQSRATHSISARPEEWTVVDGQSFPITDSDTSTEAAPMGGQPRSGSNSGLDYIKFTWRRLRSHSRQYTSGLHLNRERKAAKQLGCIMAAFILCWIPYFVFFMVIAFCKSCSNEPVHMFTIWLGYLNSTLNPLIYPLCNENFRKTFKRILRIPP

## COC(C)(C)c1ccc(N2CC[C@@H](Cc3ccccc3N3CCN(C)CC3)C2=O)cc1
[1]
  Ki: 1.2 nM
[2]
  Ki: 12 nM

## Cc1cnc(CNCC2(F)CCN(C(=O)c3ccc([18F])c(Cl)c3)CC2)nc1
[3]
  Ki: 2.24 nM
[4]
  Ratio: 1.5
[5]
  Ratio: 1.6

## O=C(NCCN1CCN(c2cccc3c2OCCO3)CC1)c1ccc([18F])cc1
[6]
  Ratio: 1.7
[7]
  Ratio: 1.7

## O=C(c1ccc(F)cc1)C1CCN(CCn2c(=S)[nH]c3ccccc3c2=O)CC1 [ALTANSERIN]
[8]
  Ki: 5 nM
[9]
  Ki: 62 nM

## CCN(CC)C(=O)[C@@H]1C=C2c3cccc4c3c(c(Br)n4[11CH3])CC2N(C)C1 (stereo not given in full)
[10]
  Ki: 0.5 nM
[11]
  Ratio: 1.7
[12]
  Ratio: 2.7

## O=S1(=O)c2cccc3cccc(c23)N1CCCN1CCN(c2ccc(F)cc2)CC1 [FANANSERIN]
[13]
  Ki: 70 nM

## O=C(c1ccc(F)cc1)C1CCN(CCn2c(=O)[nH]c3ccccc3c2=O)CC1 [KETANSERIN]
[14]
  Ki: 10 nM
[15]
  Ki: 220 nM
[16]
  Ki: 10 nM

## COc1ccccc1N1CCN(CCn2cc(COCC(COc3ccc([Si]([18F])(C(C)(C)C)C(C)(C)C)cc3)OCc3cn(CCN4CCN(c5ccccc5OC)CC4)nn3)nn2)CC1 (stereo not given)
[17]
  Ki: 2.2 nM
[18]
  Ki: 0.099 nM
[19]
  Ki: 9.8 nM

## O=C(NCCN1CCN(c2cccc3c2OCCO3)CC1)c1ccc(F)cc1
[20]
  Ki: 40 nM
[21]
  Ki: 46 nM
[22]
  Ki: 0.1 nM
[23]
  Ki: 4 nM
[24]
  Ki: 25 nM

## [11CH3]Oc1ccc2cccc(N3CCN(CCNC(=O)c4ccc(F)cc4)CC3)c2c1
[3]
  Ki: 0.98 nM
[25]
  SUV: 2
[26]
  SUV: 7

## [11CH3]N1CCN(c2cc(F)cc3c(=O)cc(C(=O)Nc4ccc(N5CCOCC5)c(F)c4)oc23)CC1
[27]
  remaining at 2 h: > 40%
[28]
  Ratio: 2.5
[29]
  Ratio: 2.2
